Laboratory results as given in ChEMBL document CHEMBL4376896, “Synthesis of Novel Potent Archazolids: Pharmacology of an Emerging Class of Anticancer Drugs” (J Med Chem, 2020).
Values after ≈ are worked out from the molar mass of the structure shown. Active and inactive are the calls of the source. The rule behind the calls is not given here.

Assays:
[1] = Intrinsic clearance in CD1 mouse liver microsomes at 1 uM; type: ADME, Microsome; conditions: read-out: CLH
Cytochrome P450 3A4 [2] = target: T1, Cytochrome P450 3A4 (Homo sapiens, UniProt P08684); experiment: Inhibition of recombinant human CYP3A4 at 100 nM; type: ADME; conditions: recombinant enzyme, 0.1 µM
T1 sequence (P08684 whole entry): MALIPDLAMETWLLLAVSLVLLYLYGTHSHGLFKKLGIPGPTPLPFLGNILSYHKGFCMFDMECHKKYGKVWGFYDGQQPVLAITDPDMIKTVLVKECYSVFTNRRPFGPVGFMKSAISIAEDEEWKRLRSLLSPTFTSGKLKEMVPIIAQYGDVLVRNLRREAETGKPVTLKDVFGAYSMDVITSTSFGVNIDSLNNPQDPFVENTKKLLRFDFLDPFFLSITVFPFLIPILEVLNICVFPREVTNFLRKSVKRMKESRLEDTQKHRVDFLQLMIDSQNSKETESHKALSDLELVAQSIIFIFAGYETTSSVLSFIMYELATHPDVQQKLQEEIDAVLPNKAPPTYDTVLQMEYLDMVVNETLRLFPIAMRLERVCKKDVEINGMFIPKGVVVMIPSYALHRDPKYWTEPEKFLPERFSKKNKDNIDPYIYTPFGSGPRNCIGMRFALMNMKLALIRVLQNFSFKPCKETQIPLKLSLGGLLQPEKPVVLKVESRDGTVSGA

[3] = Half life in human liver microsomes at 1 uM; type: ADME, Microsome
cells = conditions: Homo sapiens, 1321-N1, 72 h
Description: Growth inhibition of human 1321N1 cells incubated for 72 hrs by MTT assay

[4] = Half life in CD1 mouse liver microsomes at 1 uM; type: ADME, Microsome
[5] = Kinetic aqueous solubility of the compound; type: physicochemical; conditions: buffer; read-out: Kinetic_solubility
[6] = Stability in Sprague-Dawley rat liver microsomes assessed as drug degradation at 1 uM measured within 15 mins; type: ADME, Microsome; conditions: read-out: Drug degradation
Neutrophil elastase = target: T2, Neutrophil elastase (Homo sapiens, UniProt P08246); experiment: Inhibition of human leukocyte elastase assessed as reduction in pNA release using chromogenic MeO-Suc-Ala-Ala-Pro-Val-pNA substrate measured over 10 mins by spectrophotometry; conditions: read-out: IC50
T2 sequence (P08246 whole entry): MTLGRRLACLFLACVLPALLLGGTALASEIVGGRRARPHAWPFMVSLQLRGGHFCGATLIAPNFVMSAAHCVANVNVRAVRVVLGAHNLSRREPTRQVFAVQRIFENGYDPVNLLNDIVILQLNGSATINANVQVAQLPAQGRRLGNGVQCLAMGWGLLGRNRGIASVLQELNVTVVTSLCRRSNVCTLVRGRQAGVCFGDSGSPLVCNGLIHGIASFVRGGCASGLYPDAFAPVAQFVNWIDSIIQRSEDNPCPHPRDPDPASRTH

[7] = Half life in Sprague-Dawley rat liver microsomes at 1 uM; type: ADME, Microsome
Cytochrome P450 2B6 = Cytochrome P450 2B6 (Homo sapiens, UniProt P20813); experiment: Inhibition of recombinant human CYP2B6 at 100 nM; type: ADME; conditions: recombinant enzyme, 0.1 µM
Chain of Cytochrome P450 2B6 (P20813 whole entry): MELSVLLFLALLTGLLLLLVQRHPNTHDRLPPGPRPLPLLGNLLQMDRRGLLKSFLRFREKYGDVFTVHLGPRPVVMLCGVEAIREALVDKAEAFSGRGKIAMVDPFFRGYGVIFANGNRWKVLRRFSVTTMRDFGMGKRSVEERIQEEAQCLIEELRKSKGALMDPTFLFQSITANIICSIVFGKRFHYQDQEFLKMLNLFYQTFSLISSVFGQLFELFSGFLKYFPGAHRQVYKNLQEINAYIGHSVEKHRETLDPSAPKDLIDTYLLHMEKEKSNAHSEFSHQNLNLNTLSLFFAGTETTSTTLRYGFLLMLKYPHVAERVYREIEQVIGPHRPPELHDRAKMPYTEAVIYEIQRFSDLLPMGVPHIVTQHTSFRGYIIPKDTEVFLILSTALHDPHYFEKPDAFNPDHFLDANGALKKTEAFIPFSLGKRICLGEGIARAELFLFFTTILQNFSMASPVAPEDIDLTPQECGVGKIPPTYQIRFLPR

[8] = target: Chymotrypsin (Homo sapiens) (UniProt Q99895+P17538+P40313+Q6GPI1); experiment: Inhibition of chymotrypsin (unknown origin) assessed as reduction in pNA release using chromogenic Suc-Ala-Ala-Pro-Phe-pNA substrate measured over 12.5 mins by spectrophotometry; type: protein assay
[9] = target: P2X purinoceptor 3 (Homo sapiens) (UniProt P56373); experiment: Inhibition of human P2X3 expressed in human 1321N1 cell membranes assessed as reduction in ATP-induced inhibition of [35S]ATPgammaS binding at 1 pm to 10 mM
Adenosine receptor A3 = target: T3, Adenosine receptor A3 (Homo sapiens, UniProt P0DMS8); experiment: Displacement of [3H]PSB-11 from human A3 adenosine receptor expressed in CHO cell membranes incubated for 60 mins by liquid scintillation counting method
T3 sequence (P0DMS8 whole entry): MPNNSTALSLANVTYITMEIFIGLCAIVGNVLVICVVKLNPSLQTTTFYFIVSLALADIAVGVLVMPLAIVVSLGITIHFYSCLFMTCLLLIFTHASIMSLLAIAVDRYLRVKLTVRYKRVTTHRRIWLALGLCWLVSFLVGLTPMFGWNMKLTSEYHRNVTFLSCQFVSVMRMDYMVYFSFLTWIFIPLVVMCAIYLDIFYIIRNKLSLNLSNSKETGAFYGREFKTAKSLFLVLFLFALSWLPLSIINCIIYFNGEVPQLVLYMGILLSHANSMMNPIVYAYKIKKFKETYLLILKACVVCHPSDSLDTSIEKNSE

Cytochrome P450 2D6 = Cytochrome P450 2D6 (Homo sapiens, UniProt P10635); experiment: Inhibition of recombinant human CYP2D6 at 100 nM; type: ADME; conditions: recombinant enzyme, 0.1 µM
Chain of Cytochrome P450 2D6 (P10635 whole entry): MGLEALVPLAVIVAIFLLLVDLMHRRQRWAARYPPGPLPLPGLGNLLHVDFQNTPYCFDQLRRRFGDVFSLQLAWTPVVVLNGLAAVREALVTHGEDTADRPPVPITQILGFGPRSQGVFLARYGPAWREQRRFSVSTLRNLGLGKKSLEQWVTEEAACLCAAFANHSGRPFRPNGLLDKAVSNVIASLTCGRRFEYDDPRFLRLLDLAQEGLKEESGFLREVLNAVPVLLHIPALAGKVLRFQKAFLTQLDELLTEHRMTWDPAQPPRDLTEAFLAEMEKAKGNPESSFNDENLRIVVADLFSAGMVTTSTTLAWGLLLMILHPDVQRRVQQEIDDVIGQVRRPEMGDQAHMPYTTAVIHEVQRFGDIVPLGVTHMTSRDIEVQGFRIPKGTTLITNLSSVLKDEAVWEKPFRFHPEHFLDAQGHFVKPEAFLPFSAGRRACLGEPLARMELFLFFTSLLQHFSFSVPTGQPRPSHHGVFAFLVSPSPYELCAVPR

[10] = target: Procathepsin L (Homo sapiens) (UniProt P07711); experiment: Inhibition of cathepsin L (unknown origin) assessed as reduction in pNA release using chromogenic Z-Phe-Arg-pNA substrate measured over 1 hr by spectrophotometry
Chain of Procathepsin L (Homo sapiens) (P07711 114-333 limits assumed): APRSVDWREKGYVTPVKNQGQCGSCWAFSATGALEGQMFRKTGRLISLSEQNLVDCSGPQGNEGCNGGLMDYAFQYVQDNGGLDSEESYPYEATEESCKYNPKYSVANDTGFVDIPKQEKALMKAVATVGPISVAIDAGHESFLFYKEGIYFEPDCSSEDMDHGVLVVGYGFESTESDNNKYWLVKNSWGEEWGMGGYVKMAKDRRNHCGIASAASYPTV

Cytochrome P450 2C19 [11] = target: T4, Cytochrome P450 2C19 (Homo sapiens, UniProt P33261); experiment: Inhibition of recombinant human CYP2C19 at 1 uM; type: ADME; conditions: recombinant enzyme
T4 sequence (P33261 whole entry): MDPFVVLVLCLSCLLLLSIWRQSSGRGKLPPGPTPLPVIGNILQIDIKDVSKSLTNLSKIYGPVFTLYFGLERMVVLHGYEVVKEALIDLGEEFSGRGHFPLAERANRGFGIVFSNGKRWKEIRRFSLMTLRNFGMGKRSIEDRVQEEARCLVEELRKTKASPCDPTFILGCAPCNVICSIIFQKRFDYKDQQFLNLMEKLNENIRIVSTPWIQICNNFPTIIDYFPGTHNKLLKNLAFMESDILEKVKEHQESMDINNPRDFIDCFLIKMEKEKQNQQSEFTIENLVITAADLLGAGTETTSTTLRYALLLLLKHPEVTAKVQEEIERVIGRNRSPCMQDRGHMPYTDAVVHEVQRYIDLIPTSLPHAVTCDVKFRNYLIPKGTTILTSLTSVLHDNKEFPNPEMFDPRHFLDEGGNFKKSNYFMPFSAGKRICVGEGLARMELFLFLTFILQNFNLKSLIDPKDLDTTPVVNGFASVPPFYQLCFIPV

[12] = target: Cathepsin B (Homo sapiens) (UniProt P07858); experiment: Inhibition of cathepsin B (unknown origin) assessed as reduction in pNA release using chromogenic Z-Arg-Arg-pNA substrate measured over 1 hr by spectrophotometry
P2X purinoceptor 3 = target: T5, P2X purinoceptor 3 (Homo sapiens, UniProt P56373); experiment: Inhibition of human P2X3 assessed as reduction in agonist-induced intracellular Ca2+ concentration pre-incubated for 30 mins before agonist addition by calcium 5 dye based fluorescence assay; type: cell-based
T5 sequence (P56373 whole entry): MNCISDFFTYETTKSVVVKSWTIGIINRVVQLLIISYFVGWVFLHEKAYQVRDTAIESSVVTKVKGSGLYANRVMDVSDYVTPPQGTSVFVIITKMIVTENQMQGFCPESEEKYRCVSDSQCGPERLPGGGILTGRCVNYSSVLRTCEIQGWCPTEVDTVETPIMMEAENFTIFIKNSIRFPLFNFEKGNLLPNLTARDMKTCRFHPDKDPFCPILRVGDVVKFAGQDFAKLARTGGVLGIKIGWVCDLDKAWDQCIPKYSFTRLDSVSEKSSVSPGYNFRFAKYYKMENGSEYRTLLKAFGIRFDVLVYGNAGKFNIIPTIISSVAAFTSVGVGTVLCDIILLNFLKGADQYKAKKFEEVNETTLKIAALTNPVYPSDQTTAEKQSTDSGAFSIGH

Cytochrome P450 3A4 [13] = target: T1, Cytochrome P450 3A4; experiment: Inhibition of recombinant human CYP3A4 at 1 uM; type: ADME; conditions: recombinant enzyme
Trypsin (Homo sapiens) = Trypsin (Homo sapiens) (UniProt P07477+P07478+P35030); experiment: Inhibition of trypsin (unknown origin) assessed as reduction in pNA release using chromogenic Suc-Ala-Ala-Pro-Arg-pNA substrate measured over 10 mins by spectrophotometry; type: protein assay
[14] = Intrinsic clearance in Sprague-Dawley rat liver microsomes at 1 uM; type: ADME, Microsome; conditions: read-out: CLH
Cytochrome P450 2C9 [15] = target: T6, Cytochrome P450 2C9 (Homo sapiens, UniProt P11712); experiment: Inhibition of recombinant human CYP2C9 at 1 uM; type: ADME; conditions: recombinant enzyme
T6 sequence (P11712 whole entry): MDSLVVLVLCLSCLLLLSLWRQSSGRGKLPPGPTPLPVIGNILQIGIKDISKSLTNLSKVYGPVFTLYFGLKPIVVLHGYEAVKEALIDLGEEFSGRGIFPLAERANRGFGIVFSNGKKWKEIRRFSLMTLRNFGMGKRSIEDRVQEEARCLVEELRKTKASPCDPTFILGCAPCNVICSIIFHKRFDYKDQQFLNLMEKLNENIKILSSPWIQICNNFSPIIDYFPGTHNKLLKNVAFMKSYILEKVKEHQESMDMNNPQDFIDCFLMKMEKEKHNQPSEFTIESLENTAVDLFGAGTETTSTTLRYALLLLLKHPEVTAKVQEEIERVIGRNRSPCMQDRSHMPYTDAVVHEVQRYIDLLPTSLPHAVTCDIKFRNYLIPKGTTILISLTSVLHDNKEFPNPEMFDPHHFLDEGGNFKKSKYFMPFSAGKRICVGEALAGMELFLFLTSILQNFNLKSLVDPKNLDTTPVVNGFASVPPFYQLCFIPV

Cytochrome P450 1A2 = Cytochrome P450 1A2 (Homo sapiens, UniProt P05177); experiment: Inhibition of recombinant human CYP1A2 at 100 nM; type: ADME; conditions: recombinant enzyme, 0.1 µM
Chain of Cytochrome P450 1A2 (P05177 whole entry): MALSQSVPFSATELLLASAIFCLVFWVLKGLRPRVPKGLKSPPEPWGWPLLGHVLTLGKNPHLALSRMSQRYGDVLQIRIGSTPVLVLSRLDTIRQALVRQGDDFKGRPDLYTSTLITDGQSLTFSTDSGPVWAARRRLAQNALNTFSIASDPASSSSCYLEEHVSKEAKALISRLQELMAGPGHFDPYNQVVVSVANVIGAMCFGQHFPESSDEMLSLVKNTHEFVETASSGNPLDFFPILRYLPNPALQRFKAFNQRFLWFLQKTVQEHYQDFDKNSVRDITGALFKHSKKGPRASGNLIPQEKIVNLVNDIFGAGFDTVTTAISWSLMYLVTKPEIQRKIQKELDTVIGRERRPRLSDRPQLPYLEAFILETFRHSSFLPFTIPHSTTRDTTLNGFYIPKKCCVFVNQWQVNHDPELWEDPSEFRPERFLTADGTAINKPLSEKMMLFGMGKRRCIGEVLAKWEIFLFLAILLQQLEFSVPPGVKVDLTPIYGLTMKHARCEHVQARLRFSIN

[16] = Stability in human liver microsomes assessed as drug degradation at 1 uM measured within 15 mins; type: ADME, Microsome; conditions: read-out: Drug degradation
[17] = Stability in CD1 mouse liver microsomes assessed as drug degradation at 1 uM measured within 15 mins; type: ADME, Microsome; conditions: read-out: Drug degradation
[18] = Permeability in human Caco2 cells at 10 uM; type: ADME, cell-based; conditions: caco-2, 10 µM
[19] = Intrinsic clearance in human liver microsomes at 1 uM; type: ADME, Microsome; conditions: read-out: CLH
Cytochrome P450 2C9 [20] = target: T6, Cytochrome P450 2C9; experiment: Inhibition of recombinant human CYP2C9 at 100 nM; type: ADME; conditions: recombinant enzyme, 0.1 µM
Cytochrome P450 2C19 [21] = target: T4, Cytochrome P450 2C19; experiment: Inhibition of recombinant human CYP2C19 at 100 nM; type: ADME; conditions: recombinant enzyme, 0.1 µM

CNC(=O)O[C@@H](CC(C)C)c1nc([C@H]2OC(=O)/C=C/C/C(C)=C/[C@@H](O)[C@@H](C)\C=C(C)/C=C(C)\C=C\[C@@H](O)[C@H](C)[C@H](OC)/C(C)=C/C=C/[C@@H]2C)cs1 [ARCHAZOLID B]
microsomal CLint at 1 µM [1]: 495 µL/min/mg
inhibition (INH) (Cytochrome P450 3A4 [2]): Active
half-life at 1 µM [3]: 2.6 min
IC50 (cells): 0.145 nM
half-life at 1 µM [4]: 2.8 min
solubility kinetic [5]: 1.6 µM (≈ 1.16 µg/mL)
metabolised at 0.25 h, 1 µM [6]: 100%
IC50 (Neutrophil elastase): 316 nM
half-life at 1 µM [7]: 4.6 min
inhibition (INH) (Cytochrome P450 2B6): Active
inhibition [8]: inactive
inhibition [9]: inactive
Ki (Adenosine receptor A3): 1180 nM
inhibition (INH) (Cytochrome P450 2D6): Active
inhibition [10]: inactive
inhibition (INH) (Cytochrome P450 2C19 [11]): Active
inhibition [12]: inactive
IC50 (P2X purinoceptor 3): 353 nM
inhibition (INH) (Cytochrome P450 3A4 [13]): Active
inhibition (Trypsin (Homo sapiens)): inactive
microsomal CLint at 1 µM [14]: 301 µL/min/mg
inhibition (INH) (Cytochrome P450 2C9 [15]): Active
inhibition (INH) (Cytochrome P450 1A2): Active
metabolised at 0.25 h, 1 µM [16]: 100%
metabolised at 0.25 h, 1 µM [17]: 100%
permeability [18]: Impermeable
microsomal CLint at 1 µM [19]: 533 µL/min/mg
inhibition (INH) (Cytochrome P450 2C9 [20]): Active
inhibition (INH) (Cytochrome P450 2C19 [21]): Active
